# Measured values from article PMC6199744, “Development of Chemical Proteomics for the Folateome and Analysis of the Kinetoplastid Folateome” (ACS Infectious Diseases, 2018).
# Where two headings read alike, the source gives them in different places.
# Tests used:
# Format in all cases: binding
# [1] = molecular target: T1, HeLa cell extract proteins (Homo sapiens, UniProt O00148)
# T1 construct: endogenous in cells; host or cells: HeLa cell extract
# [2] = molecular target: T2, HeLa cell extract proteins (Homo sapiens, UniProt Q8NEZ5)
# T2 construct: endogenous in cells; host or cells: HeLa cell extract
# T2 sequence (Q8NEZ5 1-403): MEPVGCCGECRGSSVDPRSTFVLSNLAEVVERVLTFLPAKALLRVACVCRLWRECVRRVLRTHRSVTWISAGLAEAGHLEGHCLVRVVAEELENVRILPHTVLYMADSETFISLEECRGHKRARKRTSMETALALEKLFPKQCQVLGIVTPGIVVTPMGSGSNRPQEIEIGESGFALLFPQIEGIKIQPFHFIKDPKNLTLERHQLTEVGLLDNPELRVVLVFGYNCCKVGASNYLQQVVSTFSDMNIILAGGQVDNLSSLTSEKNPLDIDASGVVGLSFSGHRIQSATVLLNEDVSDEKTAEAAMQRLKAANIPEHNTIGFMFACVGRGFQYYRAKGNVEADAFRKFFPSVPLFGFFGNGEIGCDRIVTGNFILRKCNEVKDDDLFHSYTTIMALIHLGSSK
# [3] = molecular target: T3, HeLa cell extract proteins (Homo sapiens, UniProt Q01518)
# T3 construct: endogenous in cells; host or cells: HeLa cell extract
# T3 sequence (Q01518 whole entry): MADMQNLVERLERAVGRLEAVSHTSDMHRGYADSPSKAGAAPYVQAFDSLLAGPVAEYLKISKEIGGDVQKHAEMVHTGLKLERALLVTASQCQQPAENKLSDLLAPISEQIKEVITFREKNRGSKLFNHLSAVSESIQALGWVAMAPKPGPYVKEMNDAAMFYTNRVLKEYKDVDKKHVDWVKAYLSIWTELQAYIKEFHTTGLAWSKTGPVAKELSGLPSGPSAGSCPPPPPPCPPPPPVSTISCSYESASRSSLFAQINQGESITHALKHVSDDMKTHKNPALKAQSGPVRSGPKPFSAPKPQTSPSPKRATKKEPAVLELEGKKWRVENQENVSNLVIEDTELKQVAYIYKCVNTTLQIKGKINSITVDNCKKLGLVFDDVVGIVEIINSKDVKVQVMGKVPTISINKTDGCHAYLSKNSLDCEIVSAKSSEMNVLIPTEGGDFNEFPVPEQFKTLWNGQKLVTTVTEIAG
# [4] = molecular target: T4, HeLa cell extract proteins (Homo sapiens, UniProt P51648)
# T4 construct: endogenous in cells; host or cells: HeLa cell extract
# T4 sequence (P51648 whole entry): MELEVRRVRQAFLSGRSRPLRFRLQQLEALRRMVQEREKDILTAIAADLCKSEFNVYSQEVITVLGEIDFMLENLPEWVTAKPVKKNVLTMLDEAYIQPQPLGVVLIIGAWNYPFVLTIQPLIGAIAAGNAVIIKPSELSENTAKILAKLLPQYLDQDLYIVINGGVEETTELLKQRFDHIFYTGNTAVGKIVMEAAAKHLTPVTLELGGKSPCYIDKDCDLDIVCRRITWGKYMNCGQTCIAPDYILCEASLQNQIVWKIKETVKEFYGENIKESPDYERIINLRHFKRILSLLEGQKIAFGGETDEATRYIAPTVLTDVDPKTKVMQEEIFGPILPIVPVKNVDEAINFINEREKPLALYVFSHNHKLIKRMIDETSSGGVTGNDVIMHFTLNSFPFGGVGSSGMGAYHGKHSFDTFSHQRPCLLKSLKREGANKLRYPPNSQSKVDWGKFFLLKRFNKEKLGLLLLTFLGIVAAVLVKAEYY
# [5] = molecular target: T5, HeLa cell extract proteins (Homo sapiens, UniProt P62191)
# T5 construct: endogenous in cells; host or cells: HeLa cell extract
# T5 sequence (P62191 whole entry): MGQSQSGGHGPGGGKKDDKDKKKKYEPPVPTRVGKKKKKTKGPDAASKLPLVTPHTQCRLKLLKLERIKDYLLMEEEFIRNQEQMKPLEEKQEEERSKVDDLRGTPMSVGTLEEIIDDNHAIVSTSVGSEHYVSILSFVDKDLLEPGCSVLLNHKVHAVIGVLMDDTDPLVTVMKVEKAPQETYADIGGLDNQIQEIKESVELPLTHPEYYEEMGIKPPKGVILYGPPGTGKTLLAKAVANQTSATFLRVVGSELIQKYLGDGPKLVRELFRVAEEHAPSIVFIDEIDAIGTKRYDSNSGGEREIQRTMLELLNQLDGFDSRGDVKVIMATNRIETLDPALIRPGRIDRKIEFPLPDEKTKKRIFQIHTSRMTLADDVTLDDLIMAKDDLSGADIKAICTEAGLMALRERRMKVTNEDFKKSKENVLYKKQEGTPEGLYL
# [6] = molecular target: T6, HeLa cell extract proteins (Homo sapiens, UniProt Q99436)
# T6 construct: endogenous in cells; host or cells: HeLa cell extract
# T6 sequence (Q99436 44-277): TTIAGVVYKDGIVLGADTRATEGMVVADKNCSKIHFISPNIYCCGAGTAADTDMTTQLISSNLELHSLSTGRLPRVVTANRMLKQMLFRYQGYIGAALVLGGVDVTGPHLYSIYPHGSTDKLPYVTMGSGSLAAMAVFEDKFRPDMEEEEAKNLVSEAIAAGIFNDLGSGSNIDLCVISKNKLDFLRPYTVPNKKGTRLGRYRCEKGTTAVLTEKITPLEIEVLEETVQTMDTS
# [7] = molecular target: T7, HeLa cell extract proteins (Homo sapiens, UniProt Q9NVI1)
# T7 construct: endogenous in cells; host or cells: HeLa cell extract
# T7 sequence (Q9NVI1 1-1328): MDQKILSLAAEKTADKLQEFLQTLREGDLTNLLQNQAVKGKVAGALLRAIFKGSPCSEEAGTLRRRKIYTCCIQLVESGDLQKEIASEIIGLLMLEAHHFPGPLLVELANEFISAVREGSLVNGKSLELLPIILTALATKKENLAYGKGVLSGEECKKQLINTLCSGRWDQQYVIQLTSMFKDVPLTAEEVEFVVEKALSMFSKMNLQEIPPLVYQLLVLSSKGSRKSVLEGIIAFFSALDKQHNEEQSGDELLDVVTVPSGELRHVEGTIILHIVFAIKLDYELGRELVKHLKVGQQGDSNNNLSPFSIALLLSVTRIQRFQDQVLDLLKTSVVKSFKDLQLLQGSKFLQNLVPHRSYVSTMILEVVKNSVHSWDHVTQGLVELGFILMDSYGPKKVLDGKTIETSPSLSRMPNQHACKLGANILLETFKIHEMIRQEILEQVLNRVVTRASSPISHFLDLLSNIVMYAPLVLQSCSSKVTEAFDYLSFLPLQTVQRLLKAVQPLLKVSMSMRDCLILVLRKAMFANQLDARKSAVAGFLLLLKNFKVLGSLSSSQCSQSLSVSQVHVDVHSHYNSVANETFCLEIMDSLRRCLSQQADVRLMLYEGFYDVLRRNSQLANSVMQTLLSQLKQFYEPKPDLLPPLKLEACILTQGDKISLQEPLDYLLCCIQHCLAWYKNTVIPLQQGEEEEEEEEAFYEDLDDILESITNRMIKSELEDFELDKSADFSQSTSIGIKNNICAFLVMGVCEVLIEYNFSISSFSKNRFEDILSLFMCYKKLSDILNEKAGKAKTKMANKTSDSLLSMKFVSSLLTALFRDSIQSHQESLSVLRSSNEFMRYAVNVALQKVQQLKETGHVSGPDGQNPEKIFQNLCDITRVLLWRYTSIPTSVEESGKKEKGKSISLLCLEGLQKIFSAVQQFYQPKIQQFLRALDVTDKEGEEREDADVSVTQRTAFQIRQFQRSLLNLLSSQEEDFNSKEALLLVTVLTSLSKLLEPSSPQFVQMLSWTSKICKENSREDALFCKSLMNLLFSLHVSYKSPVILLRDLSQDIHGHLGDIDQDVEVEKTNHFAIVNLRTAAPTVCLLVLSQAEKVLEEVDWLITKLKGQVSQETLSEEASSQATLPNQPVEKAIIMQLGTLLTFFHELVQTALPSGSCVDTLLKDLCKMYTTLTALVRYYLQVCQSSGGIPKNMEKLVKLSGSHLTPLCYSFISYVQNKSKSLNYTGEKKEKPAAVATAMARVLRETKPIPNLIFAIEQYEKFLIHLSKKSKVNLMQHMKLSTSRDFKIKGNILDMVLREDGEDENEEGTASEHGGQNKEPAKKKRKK
# [8] = molecular target: T8, HeLa cell extract proteins (Homo sapiens, UniProt P43686)
# T8 construct: endogenous in cells; host or cells: HeLa cell extract
# T8 sequence (P43686 whole entry): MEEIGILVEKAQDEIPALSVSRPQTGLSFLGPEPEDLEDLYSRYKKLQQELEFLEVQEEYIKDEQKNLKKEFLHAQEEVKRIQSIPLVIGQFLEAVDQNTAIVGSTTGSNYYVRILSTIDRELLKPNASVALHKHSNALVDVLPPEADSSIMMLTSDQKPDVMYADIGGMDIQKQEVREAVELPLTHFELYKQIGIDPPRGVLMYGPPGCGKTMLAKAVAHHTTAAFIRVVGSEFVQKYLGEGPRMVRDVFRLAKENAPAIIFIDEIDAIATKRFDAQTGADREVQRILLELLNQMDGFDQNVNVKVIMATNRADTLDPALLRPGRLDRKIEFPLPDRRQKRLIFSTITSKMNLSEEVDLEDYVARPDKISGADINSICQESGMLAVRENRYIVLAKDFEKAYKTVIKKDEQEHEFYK
# [9] = HeLa, protein PSMB7 ([…] BETA TYPE 7 PRECURSOR)
# [10] = HeLa, protein DDX39 (CDNA FLJ55484, HIGHLY SIMILAR TO ATP-DEPENDENT RNA HELICASE DDX39.)
# T1 sequence (O00148 whole entry): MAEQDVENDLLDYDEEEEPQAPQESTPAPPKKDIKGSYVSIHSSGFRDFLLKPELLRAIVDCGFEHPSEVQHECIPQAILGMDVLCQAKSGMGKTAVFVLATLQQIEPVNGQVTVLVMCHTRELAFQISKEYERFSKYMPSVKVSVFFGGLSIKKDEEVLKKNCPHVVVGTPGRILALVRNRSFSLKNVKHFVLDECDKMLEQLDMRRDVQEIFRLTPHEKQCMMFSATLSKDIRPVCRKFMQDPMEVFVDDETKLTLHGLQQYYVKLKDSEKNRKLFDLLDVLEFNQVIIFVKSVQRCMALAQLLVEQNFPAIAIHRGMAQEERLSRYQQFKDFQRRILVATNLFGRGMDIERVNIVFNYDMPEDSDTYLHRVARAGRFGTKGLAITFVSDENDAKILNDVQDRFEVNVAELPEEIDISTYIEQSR
Structure (SMILES),"fold changes relative to vehicle control ([1]; HeLa, protein DDX39)","fold changes relative to vehicle control ([2]; HeLa, protein FBXO22)","fold changes relative to vehicle control ([3]; HeLa, protein CAP1)","fold changes relative to vehicle control ([4]; HeLa, protein ALDH3A2)","fold changes relative to vehicle control ([5]; HeLa, protein PSMC1)","fold changes relative to vehicle control [6, 9]","fold changes relative to vehicle control ([7]; HeLa, protein FANCI)","fold changes relative to vehicle control ([8]; protein PSMC4, HeLa)","fold changes relative to vehicle control [1, 10] [fold]","fold changes relative to vehicle control ([2]; captured protein FBXO22, HeLa)","fold changes relative to vehicle control ([3]; protein CAP1, HeLa)","fold changes relative to vehicle control ([5]; protein PSMC1, HeLa)","fold changes relative to vehicle control ([6]; protein PSMB7, HeLa)","fold changes relative to vehicle control ([7]; protein FANCI, HeLa)",also measured
"Nc1nc2c(c(=O)[nH]1)N(C=O)C(CNc1ccc(C(=O)N[C@@H](CCC(=O)O)C(=O)O)cc1)CN2 (some centres unmarked) [LEU, leucovorin]",1.07,1,1,0.89,1,1.19,0.87,0.97,,,,,,,
"Nc1nc2[nH]cc(CCc3ccc(C(=O)N[C@@H](CCC(=O)O)C(=O)O)cc3)c2c(=O)[nH]1 [PTX, pemetrexed]",,,,,,,,,,,,,,,fold changes relative to vehicle control [1]: 0.99; fold changes relative to vehicle control [2]: 1; fold changes relative to vehicle control [3]: 1.12; fold changes relative to vehicle control [4]: 0.93; fold changes relative to vehicle control [5]: 0.92; fold changes relative to vehicle control [6]: 1.6; fold changes relative to vehicle control [7]: 1.04; fold changes relative to vehicle control [8]: 1.01
CCCCCCOc1ccc(Cc2cnc(N)nc2N)cc1 [compound 1],,,,0.94,,,,1.13,1.22,0.89,1.19,0.98,1.17,1,
CCCCCCOc1cccc(Cc2cnc(N)nc2N)c1 [compound 2],,,,1.07,,,,1.33,2.4,1.02,2.26,1.42,1.28,1.02,
Nc1nc2cccc(-c3ccccc3)c2n1Cc1ccc(Cl)c(Cl)c1 [compound 3],,,,1.05,,,,1.04,0.86,0.96,0.73,1,0.99,1.19,
NCCOCCOCC(=O)Nc1nc2ncc(CNc3ccc(C(=O)NC(CCC(=O)O)C(=O)O)cc3)nc2c(=O)[nH]1 (centres unmarked) [compound 6],1.17,0.82,1.26,0.92,0.95,2.16,1.11,1.13,,,,,,,
NCCCNc1ccc(C(=O)NC(CCC(=O)O)C(=O)O)cc1 (centres unmarked) [compound 7],0.88,0.98,0.94,0.89,0.85,1.08,1.09,0.98,,,,,,,
